Experiments:
[1] = target: T1, human B1R (bradykinin receptor 1) (Homo sapiens, UniProt P46663); assay: FLIPR Ca2+ assay (Fluo-4) on CHO K1 cells stably transfected with the human B1R gene (hB1R cells): % inhibition at 10 μM / IC50, agonist Lys-Des-Arg9-bradykinin; format: cell-based; settings: CHO-K1, human B1R
T1 construct: expressed in transfected cells; host or cells: CHO K1 cells
T1 sequence (P46663 1-353): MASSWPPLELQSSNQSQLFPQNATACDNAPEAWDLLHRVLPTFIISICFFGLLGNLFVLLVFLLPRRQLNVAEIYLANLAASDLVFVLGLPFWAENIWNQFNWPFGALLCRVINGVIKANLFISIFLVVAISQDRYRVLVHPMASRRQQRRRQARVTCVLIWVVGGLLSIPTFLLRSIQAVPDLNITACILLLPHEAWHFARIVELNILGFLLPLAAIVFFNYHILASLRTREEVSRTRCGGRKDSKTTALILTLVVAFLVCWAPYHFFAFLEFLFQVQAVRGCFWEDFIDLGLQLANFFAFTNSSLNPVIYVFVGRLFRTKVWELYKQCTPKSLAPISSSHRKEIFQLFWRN
In short: (§1)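 Antagonism is measured as the drop in peak Fluo-4 Ca2+ signal when the EC80 agonist follows 10–20 min compound exposure. The single-point screen uses 10 μM; IC50 uses several concentrations. Values are given as % of maximal achievable inhibition.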

[2] = target: T2, rat B1R (bradykinin receptor 1) (Rattus norvegicus, UniProt P97583); assay: FLIPR Ca2+ assay (Fluo-4) on CHO K1 cells stably transfected with the B1R gene of the rat (rB1R cells): % inhibition at 10 μM / IC50, agonist Des-Arg9-bradykinin; format: cell-based; settings: CHO-K1, rat B1R
T2 construct: expressed in transfected cells; host or cells: CHO K1 cells
T2 sequence (P97583 1-337): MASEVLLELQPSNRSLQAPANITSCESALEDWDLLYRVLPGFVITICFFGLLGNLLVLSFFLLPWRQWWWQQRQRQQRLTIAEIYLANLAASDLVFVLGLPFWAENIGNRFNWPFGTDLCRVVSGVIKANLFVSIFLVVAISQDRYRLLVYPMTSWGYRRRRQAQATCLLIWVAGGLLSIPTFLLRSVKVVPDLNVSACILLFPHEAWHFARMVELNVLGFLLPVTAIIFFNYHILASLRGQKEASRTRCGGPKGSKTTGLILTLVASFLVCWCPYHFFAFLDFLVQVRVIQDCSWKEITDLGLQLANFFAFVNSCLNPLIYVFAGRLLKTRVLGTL
In short: as §1

Row | SMILES | inhibition at 10 µM [1] | inhibition at 10 µM [2]
1 | Cc1ccccc1CC(=O)N[C@@H]1CCc2ccc(C(=O)N3CCC4(CCN(c5ccncc5)CC4)C3)cc21 [Example H-154, 2-(o-Tolyl)-N-[(1R)-6-(8-pyridin-4-yl-3,8-diazaspiro[4.5]decane-3-carbonyl)-2,3-dihydro-1H-inden-1-yl]-acetamide] | 99% | 105%
2 | O=C(N[C@H]1CCc2cc(C(=O)N3CCC4(CCN(c5ccncc5)CC4)C3)ccc21)c1ccccc1Cl [Example H-155] | 87% | 100%
3 | O=C(N[C@H]1CCc2cc(C(=O)N3CCC4(CC3)CCN(c3ccncc3)CC4)ccc21)c1ccccc1Cl [Example H-156, 2-Chloro-N-[(1S)-5-(9-pyridin-4-yl-3,9-diazaspiro[5.5]undecane-3-carbonyl)-2,3-dihydro-1H-inden-1-yl]-benzamide] | 24% | 75%
4 | O=C(c1ccc2c(c1)CC[C@@H]2N1Cc2cccc(Cl)c2C1=O)N1CCC2(CCN(c3ccncc3)CC2)C1 [Example H-157] | 100% | 98%
5 | O=C(c1ccc2c(c1)CC[C@@H]2N1Cc2cccc(Cl)c2C1=O)N1CCC2(CC1)CCN(c1ccncc1)CC2 [Example H-158, 7-Chloro-2-[(1S)-5-(9-pyridin-4-yl-3,9-diazaspiro[5.5]undecane-3-carbonyl)-2,3-dihydro-1H-inden-1-yl]-2,3-dihydro-isoindol-1-one] | 92% | 100%
6 | O=C(c1ccc2c(c1)CC[C@H]2N1Cc2cccc(Cl)c2C1=O)N1CCC2(CC1)CCN(c1ccncc1)CC2 [Example H-159, 7-Chloro-2-[(1R)-5-(9-pyridin-4-yl-3,9-diazaspiro[5.5]undecane-3-carobnyl)-2,3-dihydro-1H-inden-1-yl]-2,3-dihydro-isoindol-1-one] | 98% | 103%
7 | O=C(c1ccc2c(c1)CC[C@H]2N1Cc2cccc(Cl)c2C1=O)N1CCC2(CCN(c3ccncc3)CC2)C1 [Example H-160] | 98% | 105%
8 | O=C(N[C@H]1CCc2c(C(=O)N3CCC4(CCN(c5ccncc5)CC4)C3)cccc21)c1ccccc1Cl [Example H-161, 2-Chloro-N-[(1S)-4-(8-pyridin-4-yl-3,8-diazaspiro[4.5]decane-3-carbonyl)-2,3-dihydro-1H-inden-1-yl]-benzamide] | 89% | 104%
9 | O=C(N[C@@H]1CCc2c(C(=O)N3CCC4(CCN(c5ccncc5)CC4)C3)cccc21)c1ccccc1Cl [Example H-162, 2-Chloro-N-[(1R)-4-(8-pyridin-4-yl-3,8-diazaspiro[4.5]decane-3-carbonyl)-2,3-dihydro-1H-inden-1-yl]-benzamide] | 13% | 61%
10 | O=C(N[C@H]1CCc2c(C(=O)N3CCC4(CC3)CCN(c3ccncc3)CC4)cccc21)c1ccccc1Cl [Example H-163, 2-Chloro-N-[(1S)-4-(9-pyridin-4-yl-3,9-diazaspiro[5.5]undecane-3-carbonyl)-2,3-dihydro-1H-inden-1-yl]-benzamide] | 63% | 105%
11 | O=C(N[C@@H]1CCc2c(C(=O)N3CCC4(CC3)CCN(c3ccncc3)CC4)cccc21)c1ccccc1Cl [Example H-164, 2-Chloro-N-[(1R)-4-(9-pyridin-4-yl-3,9-diazaspiro[5.5]undecane-3-carbonyl)-2,3-dihydro-1H-inden-1-yl]-benzamide] | 25% | 77%
12 | O=C(c1cccc2c1CC[C@@H]2NS(=O)(=O)c1ccccc1Cl)N1CCC2(CCN(c3ccncc3)CC2)C1 [Example H-165, 2-Chloro-N-[(1S)-4-(8-pyridin-4-yl-3,8-diazaspiro[4.5]decane-3-carbonyl)-2,3-dihydro-1H-inden-1-yl]-benzenesulfonic acid amide] | 44% | 44%
13 | O=C(c1cccc2c1CC[C@H]2NS(=O)(=O)c1ccccc1Cl)N1CCC2(CCN(c3ccncc3)CC2)C1 [Example H-166, 2-Chloro-N-[(1R)-4-(8-pyridin-4-yl-3,8-diazaspiro[4.5]decane-3-carbonyl)-2,3-dihydro-1H-inden-1-yl]-benzenesulfonic acid amide] | 21% | -4%
14 | O=C(c1cccc2c1CC[C@H]2NS(=O)(=O)c1ccccc1Cl)N1CCC2(CC1)CCN(c1ccncc1)CC2 [Example H-167, 2-Chloro-N-[(1R)-4-(9-pyridin-4-yl-3,9-diazaspiro[5.5]undecane-3-carbonyl)-2,3-dihydro-1H-inden-1-yl]-benzenesulfonic acid amide] | 35% | 81%
15 | O=C(c1cccc2c1CC[C@@H]2N1Cc2cccc(Cl)c2C1=O)N1CCC2(CCN(c3ccncc3)CC2)C1 [Example H-168, 7-Chloro-2-[(1S)-4-(8-pyridin-4-yl-3,8-diazaspiro[4.5]decane-3-carbonyl)-2,3-dihydro-1H-inden-1-yl]-2,3-dihydro-isoindol-1-one] | 96% | 55%
16 | O=C(c1cccc2c1CC[C@H]2N1Cc2cccc(Cl)c2C1=O)N1CCC2(CCN(c3ccncc3)CC2)C1 [Example H-169, 7-Chloro-2-[(1R)-4-(8-pyridin-4-yl-3,8-diazaspiro[4.5]decane-3-carbonyl)-2,3-dihydro-1H-inden-1-yl]-2,3-dihydro-isoindol-1-one] | 54% | 12%
17 | O=C(c1cccc2c1CC[C@H]2N1Cc2cccc(Cl)c2C1=O)N1CCC2(CC1)CCN(c1ccncc1)CC2 [Example H-170, 7-Chloro-2-[(1R)-4-(9-pyridin-4-yl-3,9-diazaspiro[5.5]undecane-3-carbonyl)-2,3-dihydro-1H-inden-1-yl]-2,3-dihydro-isoindol-1-one] | 56% | 47%
18 | O=C(N[C@@H]1CCc2cc(C(=O)N3CCC4(CCN(c5ccncc5)CC4)C3)ccc21)c1ccccc1Cl [Example H-171] | 100% | 104%
19 | O=C(N[C@@H]1CCc2cc(C(=O)N3CCC4(CC3)CCN(c3ccncc3)CC4)ccc21)c1ccccc1Cl [Example H-172, 2-chloro-N-[(1R)-5-(9-pyridin-4-yl-3,9-diazaspiro[5.5]undecane-3-carbonyl)-2,3-dihydro-1H-inden-1-yl]-benzamide] | 99% | 105%
20 | O=C(c1ccc2c(c1)CC[C@H]2NS(=O)(=O)c1ccccc1Cl)N1CCC2(CCN(c3ccncc3)CC2)C1 [Example H-173, 2-Chloro-N-[(1R)-5-(8-pyridin-4-yl-3,8-diazaspiro[4.5]decane-3-carbonyl)-2,3-dihydro-1H-inden-1-yl]-benzenesulfonic acid amide] | 100% | 89%
21 | CN(C(=O)c1cc(Cl)ccc1Cl)C1CCc2ccc(C(=O)N3CCC4(CC3)CCN(c3ccncc3)CC4)cc21 (centres unmarked) [IND_CC-200, 2,5-Dichloro-N-methyl-N-[6-(9-pyridin-4-yl-3,9-diazaspiro[5.5]undecane-3-carbonyl)-2,3-dihydro-1H-inden-1-yl]-benzamide] | 100% | 102%
22 | CN(C(=O)c1cc(C(F)(F)F)ccc1Cl)C1CCc2ccc(C(=O)N3CCC4(CC3)CCN(c3ccncc3)CC4)cc21 (centres unmarked) [IND_CC-202, 2-Chloro-N-methyl-N-[6-(9-pyridin-4-yl-3,9-diazaspiro[5.5]undecane-3-carbonyl)-2,3-dihydro-1H-inden-1-yl]-5-(trifluoromethyl)-benzamide] | 86% | 103%
23 | CN(C(=O)c1cc(F)ccc1Cl)C1CCc2ccc(C(=O)N3CCC4(CC3)CCN(c3ccncc3)CC4)cc21 (centres unmarked) [IND_CC-203, 2-Chloro-5-fluoro-N-methyl-N-[6-(9-pyridin-4-yl-3,9-diazaspiro[5.5]undecane-3-carbonyl)-2,3-dihydro-1H-inden-1-yl]-benzamide] | 99% | 103%
24 | O=C(NC1CCc2ccc(C(=O)N3CCC4(CC3)CCN(c3ccncc3)CC4)cc21)c1c(Cl)cccc1C(F)(F)F (centres unmarked) [IND_CC-204, 2-Chloro-N-[6-(9-pyridin-4-yl-3,9-diazaspiro[5.5]undecane-3-carbonyl)-2,3-dihydro-1H-inden-1-yl]-6-(trifluoromethyl)-benzamide] | 99% | 102%
25 | CC1(C)Cc2ccc(C(=O)N3CCC4(CC3)CCN(c3ccncc3)CC4)cc2C1NC(=O)c1c(Cl)cccc1C(F)(F)F (centres unmarked) [IND_CC-206, 2-Chloro-N-[2,2-dimethyl-6-(9-pyridin-4-yl-3,9-diazaspiro[5.5]undecane-3-carbonyl)-1,3-dihydro-inden-1-yl]-6-(trifluoromethyl)-benzamide] | 100% | 103%
